Structures can show the parent of a compound that is named as a salt.
Assays:
[1] = target: T1, wild-type c-Kit receptor protein endogenously expressed in H526 cells (Homo sapiens, UniProt P10721); assay: Assay for inhibition of c-Kit in intact cells (C-KIT H526 cell assay, ELISA of SCF-stimulated tyrosine phosphorylation); assay type: cell-based; details: 3 h compound pre-incubation, SCF stimulation 15 min, read-out: IC50 (concentration of compound that inhibits SCF-induced tyrosine phosphorylation of the c-Kit protein by 50%)
T1 construct: wild-type c-Kit receptor protein that is endogenously expressed in H526 cells; endogenous in cells; host or cells: H526 (ATCC # CRL-5811), human small cell lung cancer
Protocol: C-KIT H526 Cell Assay Protocol
I. Assay for Inhibition of c-Kit in Intact Cells
The ability of compounds to inhibit the tyrosine kinase activity of c-Kit was determined in a cell-based ELISA assay using the H526 cell line (ATCC # CRL-5811), which was originally derived from a human small cell lung cancer. The assay determines the ability of compounds to block ligand-stimulated tyrosine phosphorylation of the wild-type c-Kit receptor protein that is endogenously expressed in H526 cells. Cells are pre-incubated with compounds at various concentrations prior to addition of stem cell factor (SCF), the ligand for the c-Kit receptor tyrosine kinase. Cell lysates are then prepared and the c-Kit protein is captured onto a c-Kit antibody-coated 96-well ELISA plate. The phosphotyrosine content of the receptor protein is then monitored by quantitation of the degree of binding of an antibody that recognizes only the phosphorylated tyrosine residues within the captured protein. The antibody used has a reporter enzyme (e.g. horseradish peroxidase, HRP) covalently attached, such that binding of antibody to phosphorylated c-Kit can be determined quantitatively by incubation with an appropriate HRP substrate.
Cell Lysis Buffer: • 50 mM Tris-HCl, pH 7.4 • 150 mM NaCl • 10% Glycerol • 1% Triton X-100 • 0.5 mM EDTA • 1 μg/mL leupeptin • 1 μg/mL aprotinin • 1 mM Sodium orthovanadate
Anti c-Kit Antibody: • 0.5 μg/mL anti c-Kit Ab-3 (Lab Vision, catalog #MS289P1) in 50 mM Sodium bicarbonate, pH 9.
ELISA Assay Plates: • ELISA assay plates are prepared by addition of 100 μL of anti c-Kit antibody to each well of a 96-well Microlite-2 plate (Dynex, catalog # 7417), followed by incubation at 37° C. for 2 h. The wells are then washed twice with 300 μL wash buffer.
Plate Wash Buffer: • PBS containing 0.5% Tween-20 (PBST)
Cell Assay Medium: • RPMI with 0.1% BSA
pY20-HRP: • 25 ng/mL pY20-HRP (Calbiochem, catalog # 525320) in PBS, containing 0.5% Tween-20, 5% BSA, 1 mM Sodium orthovanadate
HRP Substrate: • Chemoluminescent detection reagent (Pierce, catalog # 37075)
Cultures of H526 cells, growing in RPMI with 10% fetal calf serum, were collected by centrifugation, washed twice with PBS, and suspended in cell assay medium. Cells were then distributed into a V-bottom 96-well plate at 7.5×10^4 cells per well in 100 μL cell assay medium.
Compound dilutions were prepared from 10 mM DMSO stocks by dilution in cell assay medium, the final concentration of DMSO in the assay being 0.1%. To compound incubation wells, 50 μL of the test compound was added (compounds are assayed at concentrations between 0.1 nM and […]); to positive and negative control wells, 50 μL cell assay medium containing 0.1% DMSO was added. The cells were then incubated with compound at 37° C. for 3 h. SCF (R&D Systems, catalog #255-SC-010) was then added in order to stimulate the c-Kit receptor and induce its tyrosine phosphorylation. Then, 10 μL of a 1.6 μg/mL solution of SCF in cell assay medium was added to all wells apart from the negative control wells, and the cells were incubated for an additional 15 min at 37° C. Following the addition of ice-cold PBS, the plate was centrifuged at 1000 rpm for 5 min, the medium removed by aspiration, and the cell pellet lysed by the addition of 120 μL ice-cold cell lysis buffer per well. The plate was kept on ice for 20 min and 100 μL of the cell lysates from each well were then transferred to the wells of an ELISA assay plate and incubated at 4° C. for 16 h.
Following incubation of the cell lysates in the ELISA plate, the wells were washed 4 times with 300 μL wash buffer, then 100 μL of the phosphotyrosine detection antibody pY20-HRP was added to each well and the plate incubated at rt for 2 h. The wells were then washed 4 times with 300 μL wash buffer. Then, 50 μL of the chemiluminescent HRP substrate was added to each well for luminometric quantitation of the amount of antiphosphotyrosine-HRP conjugate bound to the plate. […]

[2] = system: MO7e human leukemia cells; details: cited from earlier work
[3] = system: MO7e human leukemia cells; details: cited from earlier work; remark: listed apart in the source

T1 sequence (P10721 26-976): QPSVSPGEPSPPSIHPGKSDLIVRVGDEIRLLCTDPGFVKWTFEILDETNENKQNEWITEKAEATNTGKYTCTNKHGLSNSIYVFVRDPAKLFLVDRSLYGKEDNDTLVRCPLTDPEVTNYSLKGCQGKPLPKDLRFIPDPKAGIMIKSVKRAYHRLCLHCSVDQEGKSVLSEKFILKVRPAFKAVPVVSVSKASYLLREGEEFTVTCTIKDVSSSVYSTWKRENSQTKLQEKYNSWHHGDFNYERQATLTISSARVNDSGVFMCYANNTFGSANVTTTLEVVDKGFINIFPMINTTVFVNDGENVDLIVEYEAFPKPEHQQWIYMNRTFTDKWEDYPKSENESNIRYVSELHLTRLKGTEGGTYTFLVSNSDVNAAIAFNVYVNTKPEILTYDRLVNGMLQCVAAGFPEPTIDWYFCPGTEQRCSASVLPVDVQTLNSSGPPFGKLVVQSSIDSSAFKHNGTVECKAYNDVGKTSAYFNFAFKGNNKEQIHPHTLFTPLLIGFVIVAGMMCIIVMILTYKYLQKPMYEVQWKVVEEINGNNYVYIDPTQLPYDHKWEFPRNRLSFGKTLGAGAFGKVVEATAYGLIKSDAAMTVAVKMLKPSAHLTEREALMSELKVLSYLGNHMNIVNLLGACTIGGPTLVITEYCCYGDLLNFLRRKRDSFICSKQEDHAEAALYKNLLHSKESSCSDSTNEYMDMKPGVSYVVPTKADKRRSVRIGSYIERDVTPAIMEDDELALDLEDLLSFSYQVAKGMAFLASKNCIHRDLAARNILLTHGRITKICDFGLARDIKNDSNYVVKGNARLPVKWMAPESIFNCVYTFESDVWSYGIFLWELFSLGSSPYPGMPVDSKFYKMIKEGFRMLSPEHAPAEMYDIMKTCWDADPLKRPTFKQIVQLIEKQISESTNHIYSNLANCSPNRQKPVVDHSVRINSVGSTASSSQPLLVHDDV

| SMILES | IC50 [1] [µM] | also measured |
| --- | --- | --- |
| O=C(N[C@H]1CC[C@@]2(CC1)CC(=O)N(Cc1ccccc1)N2)c1sccc1NCc1ccnc2ccccc12 [Compound 2, cis-N-(2-Benzyl-3-oxo-1,2-diazaspiro[4.5]dec-8-yl)-3-[(quinolin-4-ylmethyl)amino]thiophene-2-carboxamide] | > 15 |  |
| Cc1ccc(NC(=O)c2ccc(CN3CCN(C)CC3)cc2)cc1Nc1nccc(-c2cccnc2)n1 [Gleevec, imatinib mesylate] |  | apoptosis ([2]; Kit ligand-stimulated conditions): induces apoptosis; Kit ligand-stimulated growth ([2]; Kit ligand-stimulated): inhibited; GM-CSF stimulated growth [3]: not affected |
| CN1CCN[C@]2(CC[C@@H](NC(=O)c3sccc3NCc3ccnc4ccccc34)CC2)C1=O [Compound 1, cis-N-(4-Methyl-5-oxo-1,4-diazaspiro[5.5]undec-9-yl)-3-[(quinolin-4-ylmethyl)amino]thiophene-2-carboxamide] | > 15 |  |
| O=C(NC1CCC2(CC1)NC(=O)N(Cc1ccccc1)C2=O)c1sccc1NCc1ccnc2ccccc12 (stereo not drawn) [Compound 3, N-(3-Benzyl-2,4-dioxo-1,3-diazaspiro[4.5]dec-8-yl)-3-[(quinolin-4-ylmethyl)amino]thiophene-2-carboxamide] | > 15 |  |

More lines, main results first:

| IC50 [1] [µM] | SMILES | also measured |
| --- | --- | --- |
| > 15 | Cc1csc(C(=O)NC2CCC3(CC2)NC(=O)N(CCC(C)C)C3=O)c1NCc1ccnc2ccccc12 (stereo not drawn) [Compound 5, N-[3-(3-Methylbutyl)-2,4-dioxo-1,3-diazaspiro[4.5]dec-8-yl]-4-methyl-3-[(quinolin-4-ylmethyl)amino]thiophene-2-carboxamide] |  |
| > 15 | O=C1NC(=O)C2(CCC(NC(=O)c3sccc3NCc3ccnc4ccccc34)CC2)N1 (stereo not drawn) [Compound 4, N-(2,4-Dioxo-1,3-diazaspiro[4.5]dec-8-yl)-3-[(quinolin-4-ylmethyl)amino]thiophene-2-carboxamide] |  |
| > 15 | O=C(Nc1ccc2c(c1)C1(CCN(C(=O)OCc3ccccc3)CC1)CN2)c1sccc1NCc1ccnc2ccccc12 [Compound 6] |  |
